Experimental data taken from ChEMBL document CHEMBL5038653, “A Brain-Penetrant and Bioavailable Pyrazolopiperazine BACE1 Inhibitor Elicits Sustained Reduction of Amyloid β In Vivo” (ACS Med Chem Lett, 2022).

Columns and labels:
[1] = In vivo inhibition of BACE1 in Beagle dog assessed as reduction of amyloid beta (1 to 42 residues) levels in CSF at 5 mg/kg, po measured at 8 to 24 hrs; type: functional, Canis lupus familiaris; design: scale not given: the % may be the effect or the level left; details: time 8-24 hrs
[2] = Half life in rat at 0.25 mg/kg, iv; type: ADME, organism-based; details: in vivo
[3] = Volume of distribution at steady state in dog at 0.25 mg/kg, iv; type: ADME, organism-based, Canis lupus familiaris; details: in vivo, read-out: Vdss
[4] = Ratio of unbound drug concentration in brain to blood in CD-1 mouse at 10 mg/kg, po measured at 1 hr post dose; type: ADME, organism-based
[5] = In vivo inhibition of BACE1 in Beagle dog assessed as reduction of amyloid beta (1 to 42 residues) levels in CSF at 2.5 mg/kg, po measured after 8 hrs by electrochemiluminescence assay; type: functional, Canis lupus familiaris; design: scale not given: the % may be the effect or the level left
[6] = biological target: T1, Beta-secretase 2 (Homo sapiens, UniProt Q9Y5Z0); assay: Inhibition of BACE2 (unknown origin)
T1 sequence (Q9Y5Z0 whole entry): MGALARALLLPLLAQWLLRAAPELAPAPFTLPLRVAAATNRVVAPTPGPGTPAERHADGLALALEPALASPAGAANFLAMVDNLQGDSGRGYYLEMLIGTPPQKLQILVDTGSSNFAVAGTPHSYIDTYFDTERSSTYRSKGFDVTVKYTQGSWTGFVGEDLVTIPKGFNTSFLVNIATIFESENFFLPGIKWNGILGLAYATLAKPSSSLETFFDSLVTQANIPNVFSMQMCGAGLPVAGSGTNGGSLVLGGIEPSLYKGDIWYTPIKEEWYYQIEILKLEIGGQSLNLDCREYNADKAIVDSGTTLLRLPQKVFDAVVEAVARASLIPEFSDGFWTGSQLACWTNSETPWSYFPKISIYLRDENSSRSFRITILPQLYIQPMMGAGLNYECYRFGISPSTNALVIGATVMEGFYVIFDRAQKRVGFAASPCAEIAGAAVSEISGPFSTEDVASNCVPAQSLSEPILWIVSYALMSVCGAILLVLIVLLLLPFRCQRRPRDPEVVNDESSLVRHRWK

[7] = Cardiotoxicity in guinea pig assessed as effect on blood pressure upto 5 mg/kg, iv administered over 10 mins at 30 mins interval; type: toxicity, organism-based, Cavia porcellus; details: in vivo
[8] = Volume of distribution at steady state in rat at 0.25 mg/kg, iv; type: ADME, organism-based; details: in vivo, read-out: Vdss
[9] = biological target: Cytochrome P450 2C19 (Homo sapiens, UniProt P33261); assay: Inhibition of human CYP2C19 by fluorescence plate reader analysis; type: ADME
Cytochrome P450 2C19, sequence (P33261 whole entry): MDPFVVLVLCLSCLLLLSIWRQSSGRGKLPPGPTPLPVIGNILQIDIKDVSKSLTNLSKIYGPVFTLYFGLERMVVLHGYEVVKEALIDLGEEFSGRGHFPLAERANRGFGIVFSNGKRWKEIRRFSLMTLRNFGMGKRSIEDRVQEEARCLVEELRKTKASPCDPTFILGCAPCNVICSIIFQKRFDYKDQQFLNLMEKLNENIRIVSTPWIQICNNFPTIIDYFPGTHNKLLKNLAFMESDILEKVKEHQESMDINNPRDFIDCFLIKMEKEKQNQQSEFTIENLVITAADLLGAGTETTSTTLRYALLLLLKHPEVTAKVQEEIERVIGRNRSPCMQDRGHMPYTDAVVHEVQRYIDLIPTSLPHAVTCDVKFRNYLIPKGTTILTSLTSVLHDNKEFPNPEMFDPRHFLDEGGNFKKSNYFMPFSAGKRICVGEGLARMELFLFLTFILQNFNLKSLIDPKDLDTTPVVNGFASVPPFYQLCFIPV

[10] = Oral bioavailability in mouse at 2.1 mg/kg; type: ADME, organism-based; details: in vivo
[11] = Oral bioavailability in dog at 2.5 mg/kg; type: ADME, organism-based, Canis lupus familiaris; details: in vivo
[12] = Cmax in mouse at 2.1 mg/kg, po; type: ADME, organism-based; design: route oral, dose 2.1 mg/kg; details: in vivo
[13] = Cardiotoxicity in guinea pig assessed as effect on PQ interval upto 5 mg/kg, iv administered over 10 mins at 30 mins interval by ECG analysis; type: toxicity, organism-based, Cavia porcellus; details: in vivo
[14] = Cmax in rat at 2.3 mg/kg, po; type: ADME, organism-based; design: route oral, dose 2.3 mg/kg; details: in vivo
[15] = In vivo inhibition of CD-1 mouse assessed as remaining amyloid beta (1 to 42 residues) levels in CSF at 10 mg/kg, po measured at 4 hrs; type: functional
[16] = Clearance in rat at 0.25 mg/kg, iv relative to liver blood flow; type: ADME, organism-based; details: in vivo
[17] = Tmax in mouse at 2.1 mg/kg, po; type: ADME, organism-based; details: in vivo
[18] = Cardiotoxicity in guinea pig assessed as effect on heart rate upto 5 mg/kg, iv administered over 10 mins at 30 mins interval by ECG analysis; type: toxicity, organism-based, Cavia porcellus; details: in vivo
[19] = Half life in mouse at 0.28 mg/kg, iv; type: ADME, organism-based; details: in vivo
[20] = Ratio of unbound drug concentration in brain to blood in CD-1 mouse at 10 mg/kg, po measured at 4 hr post dose; type: ADME, organism-based
[21] = Half life in dog at 0.25 mg/kg, iv; type: ADME, organism-based, Canis lupus familiaris; details: in vivo
[22] = AUC (0 to last) in rat at 2.5 mg/kg, po; type: ADME, organism-based; design: route oral, time 0 - last, dose 2.5 mg/kg; details: in vivo
[23] = Drug level in CD-1 mouse plasma at 10 mg/kg, po measured at 1 hr post dose; type: ADME, organism-based
[24] = In vivo inhibition of CD-1 mouse assessed as remaining amyloid beta (1 to 42 residues) levels in CSF at 10 mg/kg, po measured at 2 hrs; type: functional
[25] = AUC (0 to infinity) in rat at 0.25 mg/kg, iv; type: ADME, organism-based; design: route intravenous, time infinity, dose 0.25 mg/kg; details: in vivo
[26] = Drug level in CD-1 mouse brain at 10 mg/kg, po measured at 2 hr post dose; type: ADME, organism-based; details: read-out: Ct
[27] = Tmax in rat at 2.3 mg/kg, po; type: ADME, organism-based; details: in vivo
[28] = Cardiotoxicity in guinea pig assessed as effect on QT interval upto 5 mg/kg, iv administered over 10 mins at 30 mins interval by ECG analysis; type: toxicity, organism-based, Cavia porcellus; details: in vivo
[29] = Oral bioavailability in rat at 2.3 mg/kg; type: ADME, organism-based; details: in vivo
[30] = Free drug concentration in dog plasma measured after 4.5 hrs by HPLC-MS/MS method; type: ADME, cell-free, Canis lupus familiaris
[31] = Volume of distribution at steady state in mouse at 0.28 mg/kg, iv; type: ADME, organism-based; details: in vivo, read-out: Vdss
[32] = Ratio of unbound drug concentration in brain to blood in CD-1 mouse at 10 mg/kg, po measured at 2 hr post dose; type: ADME, organism-based
[33] = Toxicity in Beagle dog assessed as clinical pathological changes at 0.31 to 5 mg/kg, po; type: organism-based, Canis lupus familiaris; details: in vivo, dose 0.31-5 mg/kg
[34] = In vivo inhibition of CD-1 mouse assessed as remaining amyloid beta (1 to 42 residues) levels in CSF at 10 mg/kg, po measured at 1 hr; type: functional
[35] = AUC (0 to infinity) in mouse at 0.28 mg/kg, iv; type: ADME, organism-based; design: time infinity, route intravenous, dose 0.28 mg/kg; details: in vivo
[36] = Tmax in dog at 2.5 mg/kg, po; type: ADME, organism-based, Canis lupus familiaris; details: in vivo
[37] = Ratio of apparent permeability across apical to basolateral side in the presence of P-gp inhibitor elacridar to the absence of P-gp inhibitor elacridar in dog MDCK-MDR1 cells at 5 uM incubated for 120 mins; type: ADME, cell-based, Canis lupus familiaris; details: 2 h
[38] = Drug level in CD-1 mouse plasma at 10 mg/kg, po measured at 2 hr post dose; type: ADME, organism-based
[39] = tested on: MDR1; assay: Efflux ratio of apparent permeability in dog MDCK-MDR1 cells; type: ADME, cell-based, Canis lupus familiaris

Question: What does the source list for `COc1cnc(C(=O)Nc2ccc(F)c([C@]3(C)Cn4nc(C#N)cc4C(N)=N3)c2)cn1`?
Answer: Activity [1]: 80%; half-life [2]: 258 min; Vd [3]: 4.2 L/kg; Kp uu at 1 h [4]: 0.3; Activity [5]: 85%; IC50 [6]: 11.5 nM; Activity [7]: Non-Toxic; Vd [8]: 5.3 L/kg; IC50 [9]: > 30 µM; bioavailability [10]: > 100%; bioavailability [11]: 67%; Cmax [12]: 160 ng/mL; Activity [13]: Non-Toxic; Cmax [14]: 124 ng/mL; Activity [15]: 45%; CL [16]: 35%; Tmax [17]: 2.3 h; Activity [18]: Non-Toxic; half-life [19]: 168 min; Kp uu at 4 h [20]: 0.22; half-life [21]: 462 min; AUClast [22]: 3840 ng·h/mL; concentration at 1 h [23]: 591 ng/mL; Activity [24]: 53%; AUC [25]: 219 ng·h/mL; concentration at 2 h [26]: 888 ng/g; Tmax [27]: 5 h; Activity [28]: Non-Toxic; bioavailability [29]: 59%; fraction unbound at 4.5 h [30]: 0.24; Vd [31]: 5.3 L/kg; Kp uu at 2 h [32]: 0.29; Activity [33]: Non-Toxic; Activity [34]: 74%; AUC [35]: 206 ng·h/mL; Tmax [36]: 2.3 h; Ratio [37]: 1.56; concentration at 2 h [38]: 866 ng/mL; efflux ratio [39]: 5.3
